One assay concerns the target T1, wildtype AR (Homo sapiens, UniProt P10275).
T1 construct: The AR WT construct expresses full-length human AR under cmv promoter control; expressed in transfected cells; host or cells: COS7
T1 sequence (P10275 1-920): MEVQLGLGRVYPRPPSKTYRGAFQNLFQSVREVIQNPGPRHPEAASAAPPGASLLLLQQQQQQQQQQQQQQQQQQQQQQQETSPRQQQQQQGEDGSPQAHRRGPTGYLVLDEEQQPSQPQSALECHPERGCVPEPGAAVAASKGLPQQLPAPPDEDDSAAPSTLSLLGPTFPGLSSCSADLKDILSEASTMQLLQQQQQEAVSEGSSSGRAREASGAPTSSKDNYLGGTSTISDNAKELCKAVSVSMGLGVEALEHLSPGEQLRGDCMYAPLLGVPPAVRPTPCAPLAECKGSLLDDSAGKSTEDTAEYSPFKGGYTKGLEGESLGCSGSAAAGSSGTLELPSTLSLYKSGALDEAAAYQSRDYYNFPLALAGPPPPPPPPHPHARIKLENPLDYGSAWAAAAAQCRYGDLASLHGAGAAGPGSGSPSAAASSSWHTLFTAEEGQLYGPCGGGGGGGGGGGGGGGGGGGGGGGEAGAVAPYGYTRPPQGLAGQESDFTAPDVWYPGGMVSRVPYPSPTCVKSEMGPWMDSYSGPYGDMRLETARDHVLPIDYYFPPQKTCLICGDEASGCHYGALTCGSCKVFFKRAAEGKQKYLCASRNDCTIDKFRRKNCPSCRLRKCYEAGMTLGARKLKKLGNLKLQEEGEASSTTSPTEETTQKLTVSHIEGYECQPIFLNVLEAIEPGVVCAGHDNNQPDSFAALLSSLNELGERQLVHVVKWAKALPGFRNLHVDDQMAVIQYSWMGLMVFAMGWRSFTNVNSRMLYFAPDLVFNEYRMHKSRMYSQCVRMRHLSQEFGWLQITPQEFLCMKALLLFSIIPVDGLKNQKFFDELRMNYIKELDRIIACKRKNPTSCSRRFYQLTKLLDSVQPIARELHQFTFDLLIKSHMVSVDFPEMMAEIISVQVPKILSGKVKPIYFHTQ
As to the kind of experiment: AR-responsive firefly luciferase reporter assay in COS7 cells transfected with AR (DHT-stimulated AR activity). The note with it: for inhibition at 12.5 µM: COS-7, 24 h, read-out: % Angtag (12.5 μM vs. 1 nM DHT). In kind it is cell-based. An excerpt: FIG. 13. Antagonist activity of generation 4 compounds at 25 micromolar. […] Reporter firefly luciferase is corrected for control Renilla activity.
FIG. 14. Antagonist activity of generation 4 compounds at 1-10 micromolar. […] Reporter firefly luciferase is corrected for control Renilla activity. […]
(§1) The AR-responsive firefly luciferase reporter consists of 4 tandem repeats of the consensus steroid response element cloned upstream of the pGL3-Basic Luciferase vector (Promega). The AR WT construct expresses full-length human AR under cmv promoter control.
(§2) Luciferase activity was determined using the Dual-Luciferase Reporter Assay System (Promega E1910).

Another assay deals with T2, T877A mutant AR (Homo sapiens, UniProt P10275, T878A).
T2 sequence (P10275 1-920 T878A): T1 sequence (P10275 1-920) with T878A
Briefly: T877A mutant AR luciferase reporter assay. In kind it is cell-based. The note with it: HF 100 nM; chemotype A compounds 10 μM. As for the experimental part: FIG. 6. […] (f) W741C mutant AR response to Bic (10 μM), HF (100 nM), and chemotype A compounds (10 μM). Error bars represent S.E.M.
To further validate the predicted positioning of the compounds in the steroid binding pocket, we also examined the effects of established mutations within the LBD.
as §1, §2
On the technique in general: A reporter such as luciferase makes a cellular process visible.

The next assay concerns the target VP16-AR (Homo sapiens, UniProt P10275).
For assay [1], the target named is T3, AR in VCaP cells (Homo sapiens, UniProt P10275).
T3 construct: endogenous in cells; host or cells: VCaP
T3 sequence (P10275 1-920): T1 sequence (P10275 1-920)
As to the kind of experiment: Nuclear AR, total AR protein and PSA expression in VCaP cells in steroid depleted medium. In kind it is cell-based. An excerpt: VCaP cells, derived from a CRPC vertebral metastasis, express substantial levels of AR and AR regulated genes such as PSA even when cultured in steroid depleted medium. […] In additional studies focused on chemotype A compounds, we used immunofluorescence to assess AR nuclear localization. […] In contrast, and consistent with the biochemical fractionation studies noted above, basal nuclear AR was decreased by A61.
We used the NE-PER Nuclear and Cytoplasmic Extraction Reagents (Pierce 78833).

Assay [2] concerns the target T3, AR in VCaP cells. Briefly: Immunofluorescence of AR nuclear localization in VCaP cells (CSS medium). In kind it is cell-based. An excerpt:
VCaP cells, derived from a CRPC vertebral metastasis, express substantial levels of AR and AR regulated genes such as PSA even when cultured in steroid depleted medium. […] In additional studies focused on chemotype A compounds, we used immunofluorescence to assess AR nuclear localization.

A further assay addresses T4, AR in C4-2 cells (Homo sapiens, UniProt P10275, T878A).
T4 sequence (P10275 1-920 T878A): T1 sequence (P10275 1-920) with T878A

The mark [3] stands for this setting: steroid depleted medium, data not shown.

Changes are numbered by the printed parent chain. “Also recorded” adds a separate entry of the source.

With `O=C(CCl)Nc1ccc(S(=O)(=O)NCc2ccc3c(c2)OCO3)cc1` [Compound 14, N-(4-(N-(Benzo[d][1,3]dioxol-5-ylmethyl)sulfamoyl)phenyl)chloroacetamide], the inhibition at 12.5 µM on wildtype AR was 90%. With `O=C(CBr)Nc1cccc(S(=O)(=O)NCc2ccc3c(c2)OCO3)c1` [Compound 17, N-(3-(N-(Benzo[d][1,3]dioxol-5-ylmethyl)sulfamoyl)phenyl)-2-bromoacetamide], on wildtype AR, the inhibition at 12.5 µM stood at 20%. In the case of `CC(C)(O)C(=O)Nc1ccc([N+](=O)[O-])c(C(F)(F)F)c1` [hydroxyflutamide], the “agonist activity on T877A mutant AR” value at T877A mutant AR was “strong agonist”. At VP16-AR, the “VP16-AR reporter (transcriptional) activity” value is listed as “strong reporter activity”. In the case of `O=S(=O)(NCc1ccc2c(c1)OCO2)c1ccc(F)cc1F` [Compound A61, N-(1,3-benzodioxol-5-ylmethyl)-2,4-difluorobenzenesulfonamide], on AR in VCaP cells [1] (10 μM, steroid depleted medium), the “basal level PSA expression” value is given as “further decreasing basal level PSA expression” and the “nuclear AR” value is “significantly decreased nuclear AR”. Also, the “DHT stimulated PSA expression” value at AR in VCaP cells [1] (not shown) is on record as “blocking DHT stimulated PSA expression”. Also, at wildtype AR (relative to initial chemotype A compounds, data not shown), the “potency in antagonizing AR activity in luciferase reporter assays” value was “increased potency; also recorded: relatively higher potency”. Also, at AR in VCaP cells [2], the “nuclear AR levels by immunofluorescence” value is reported as “decreased”. In addition, at AR in C4-2 cells (24 hours (FIG. 10a)), the “basal PSA” value was “decrease in basal PSA” and the “total AR protein levels” value is reported as “noteworthy decrease”. In addition, at AR in C4-2 cells (setting [3]), the PSA expression result is reported as “reduced” and the “nuclear AR levels” value is given as “reduced nuclear AR levels”. Regarding `CS(=O)(=O)Nc1ccc(S(=O)(=O)NCc2ccc3c(c2)OCO3)cc1` [Compound 21, N-(benzo[d][1,3]dioxol-5-ylmethyl)-4-(methylsulfonamido)benzenesulfonamide], on wildtype AR, the inhibition at 12.5 µM is 70%. As for `CC(=O)N(C(C)=O)c1ccc(S(=O)(=O)NCc2ccc3c(c2)OCO3)cc1` [Compound 15, N-acetyl-N-(4-(N-(Benzo[d][1,3]dioxol-5-ylmethyl)sulfamoyl)phenyl) acetamide], on wildtype AR (12.5 μM compound vs. 1 nM DHT), the “% Angtag (12.5 μM vs. 1 nM DHT)” value was 85%. As for `O=C(Nc1ccc(S(=O)(=O)NCc2ccc3c(c2)OCO3)cc1)C(F)(F)F` [Compound 20, N-(4-(N-(Benzo[d][1,3]-dioxol-5-ylmethyl)sulfamoyl)phenyl)-2,2,2-trifluoroacetamide], at wildtype AR, the inhibition at 12.5 µM amounted to 0%. On the same count and under the same terms, with `CC(C)(C)CC(=O)Nc1ccc(S(=O)(=O)NCc2ccc3c(c2)OCO3)cc1` [Compound 22, N-(4-(N-(Benzo[d][1,3]dioxol-5-ylmethyl)sulfamoyl)phenyl)-3,3-dimethylbutanamide] the figure was 70%.

Take `CS(=O)(=O)c1cc(S(=O)(=O)NCc2ccc3c(c2)OCO3)ccc1OC(F)(F)F` [Compound 31, N-(benzo[d][1,3]dioxol-5-ylmethyl)-3-(methylsulfonyl)-4-(trifluoromethoxy)benzenesulfonamide]: the inhibition at 12.5 µM at wildtype AR stood at 85%. Take `CC(=O)c1ccc(S(=O)(=O)NCc2ccc3c(c2)OCO3)cc1OC(F)(F)F` [Compound 25, 4-acetyl-N-(benzo[d][1,3]dioxol-5-ylmethyl)-3-(trifluoromethoxy)benzenesulfonamide]: the inhibition at 12.5 µM at wildtype AR is 50%. Still for that read-out and setting: with `CC(=O)c1ccc(S(=O)(=O)NCc2ccc3c(c2)OCO3)cc1C(F)(F)F` [Compound 32, 4-acetyl-N-(benzo[d][1,3]dioxol-5-ylmethyl)-3-(trifluoromethyl)benzenesulfonamide] the figure was 50%; with `CCC(=O)c1ccc(S(=O)(=O)NCc2ccc3c(c2)OCO3)cc1C(F)(F)F` [Compound 33, N-(benzo[d][1,3]dioxol-5-ylmethyl)-4-propionyl-3-(trifluoromethyl)benzenesulfonamide], 20%; with `CCC(=O)c1cc(S(=O)(=O)NCc2ccc3c(c2)OCO3)ccc1OC(F)(F)F` [Compound 29, N-(benzo[d][1,3]dioxol-5-ylmethyl)-3-propionyl-4-(trifluoromethoxy)benzenesulfonamide], 60%. On the same count and under the same terms, the result for `O=S(=O)(NCc1ccc2c(c1)OCO2)c1ccc(C(F)(F)F)c(N=C=S)c1` [Compound 23, N-(benzo[d][1,3]dioxol-5-ylmethyl)-3-isothiocyanato-4-(trifluoromethyl)benzenesulfonamide] reads 75%; that for `NC(=O)c1cc(S(=O)(=O)NCc2ccc3c(c2)OCO3)ccc1OC(F)(F)F` [Compound 30, 5-(N-(benzo[d][1,3]dioxol-5-ylmethyl)sulfamoyl)-2-(trifluoromethoxy)benzamide], 20%; that for `O=C(CBr)Nc1ccc(S(=O)(=O)NCc2ccc3c(c2)OCO3)cc1` [Compound 13, N-(4-(N-(Benzo[d][1,3]dioxol-5-ylmethyl)sulfamoyl)phenyl) bromoacetamide], 70%.

These data come from patent publication US20140088187A1, “ANDROGEN RECEPTOR INHIBITORS AND METHODS OF USE THEREOF” (BETH ISRAEL DEACONESS MEDICAL CENTER, priority 2010, published 2014).
